# In article PMC4140803 (PLoS ONE, 2014):
# Read-outs that look alike come from different tables or passages of the source.
# Tests used:
# [1] = system: HIV-1KM018; experiment: Anti-HIV activity in vitro, PBMC; assay type: cell-based; settings: for EC50: read-out: EC50s
# Experimental: (§1) C8166 cells were infected with different HIV-1 or HIV-2 laboratory strains and resistant strains at different serial concentration compounds with multiplicity of infection (MOI) of 0.075∼0.6. PHA-stimulated PBMCs were incubated with different clinical strains in RPMI-1640 (with 10% FBS, 50 U/ml IL-2 and 2 µg/ml polybrene) at MOI of 0.1. After infection at 37°C in 5% CO2 for 2 hours, C8166 cells were washed three times to remove free viruses and re-suspended by RPMI-1640 (with 10% FBS). 100 µl 4×10^4 cells (5×10^5 cells for PBMC) were seeded each well in a 96-well plate with gradient concentration of FNC. The plate was placed in a humidified incubator at 37°C, 5% CO2. 3TC and AZT were used as control. After incubation of 3–7 days, the percentage inhibition of syncytia formation was scored or the level of p24 was measured by ELISA [19] and 50% effective concentration (EC50) were calculated.
# [2] = system: 3TCP-21 HIV-1IIIB; experiment: Phenotypic analysis of resistant variants in C8166; assay type: cell-based; settings: for FC, fold change, the ratio of EC50(Mut)/EC50(WT): 3TCP-21 HIV-1IIIB vs wild type HIV-1IIIB; for EC50: Human immunodeficiency virus 1, C8166, 3TC-selected HIV-1IIIB at P-21
# [3] = system: PBMC; assay type: cell-based, human
# Experimental: C8166 cells were kindly donated by the Medical Research Council (MRC), the AIDS Reagent Project, U.K, and were maintained in RPMI-1640 with 10% FBS in humidified incubator with 5% CO2 at 37°C [16]. Peripheral blood mononuclear cells (PBMCs) were isolated from healthy donors by Ficoll-Hypaque density gradient centrifugation as described by the manufacturer’s instructions (Ethical Approval Number: SWYX-2011016). PBMCs were stimulated with 10% FBS, 5 µg/ml PHA and 50 U/ml IL-2 for three days before experiments.
# (§2) Cytotoxicity was assayed by MTT colorimetric reduction as previously described, [18]. Briefly, a serial concentration of FNC was added to a 96-well plate, followed by 100 µl 4×10^4 C8166 cells (5×10^5 cells for PBMC). After incubation at 37°C, 5% CO2 for 3 days (7 days for PBMCs), 20 µl MTT was added each well. After incubation for 4 hours, 100 µl supernatant was removed and 100 µl 20%SDS-50%DMF was added. The plate was incubated at 37°C overnight. The optical absorbance was measured by ELISA reader (ELx800, Bio-Tek, VT, USA) at 570 nm and 630 nm, and 50% cytotoxicity concentration (CC50) was calculated. 3TC and AZT were used as control.
# [4] = system: FNCP-21 HIV-1 IIIB; experiment: Phenotypic analysis of resistant variants in C8166; assay type: cell-based; settings: for FC, fold change, the ratio of EC50(Mut)/EC50(WT): FNCP-21 HIV-1 IIIB vs wild type HIV-1IIIB; for EC50: Human immunodeficiency virus 1, C8166, FNC-selected HIV-1IIIB at P-21
# [5] = system: Wild type HIV-1IIIB; experiment: Anti-HIV activity / phenotypic analysis in C8166; assay type: cell-based; settings: for EC50: Human immunodeficiency virus 1, C8166, wild type HIV-1IIIB; for FC, fold change, the ratio of EC50(Mut)/EC50(WT): wild type HIV-1IIIB (reference)
# [6] = system: C8166 cells; assay type: cell-based, human
# Experimental: as §2
# [7] = system: HIV-1TC-1; experiment: Anti-HIV activity in vitro, PBMC; assay type: cell-based; settings: Human immunodeficiency virus 1, HIV-1TC-1, CRF01AE, clinical strain
# Experimental: as §1
# [8] = system: HIV-1WAN T69N; experiment: microbe, parasite or virus in culture; assay type: cell-based; settings: for EC50: Human immunodeficiency virus 1, PBMC, HIV-1WAN T69N, CRF01AE, clinical strain
# [9] = system: HIV-1RF; experiment: Anti-HIV activity in vitro, C8166; assay type: cell-based; settings: Human immunodeficiency virus 1, subtype B
# Experimental: as §1
# [10] = system: HIV-2CBL-20; experiment: Anti-HIV activity in vitro, C8166; assay type: cell-based; settings: Human immunodeficiency virus 2; C8166, HIV-2CBL-20, subtype A
# Experimental: as §1
# [11] = system: HIV-2ROD; experiment: Anti-HIV activity in vitro, C8166; assay type: cell-based; settings: Human immunodeficiency virus 2, subtype A
# Experimental: as §1
# [12] = system: HIV-1_74V; experiment: Anti-HIV activity in vitro, C8166; assay type: cell-based; settings: Human immunodeficiency virus 1, subtype B, NRTI-resistant
# Experimental: as §1
# [13] = system: pNL4-3 gp41 (36G) V38A/N42T; assay type: cell-based, HIV-1; settings: C8166, pNL4-3 gp41 (36G) V38A/N42T, subtype B, FI-resistant
# [14] = system: HIV-1IIIB; experiment: Selection of drug-resistant HIV-1 variants and genotypic resistance assay; assay type: cell-based
# [15] = system: HIV-1L10R/M46I/L63P/V82T/I84V; experiment: microbe, parasite or virus in culture; assay type: cell-based; settings: Human immunodeficiency virus 1, C8166, read-out: EC50s
# [16] = system: HIV-1; experiment: Anti-HIV activity in vitro, summary over HIV-1 strains; assay type: cell-based; settings: Human immunodeficiency virus 1
# Experimental: as §1
# [17] = system: HIV-2; experiment: Anti-HIV activity in vitro, summary over HIV-2 strains; assay type: cell-based; settings: Human immunodeficiency virus 2; range over HIV-2 strains; read-out: EC50s on HIV-2
# Experimental: as §1
# [18] = system: HIV-1IIIB; experiment: Quantification of HIV-1 DNA species by real-time quantitative PCR; settings: HIV-1IIIB infected C8166, 2 nM FNC or 2 µM 3TC
# [19] = system: HIV-1; experiment: Activity assay with 50% human serum in C8166; assay type: cell-based; settings: C8166, 50% human serum, data not shown
# [20] = Human immunodeficiency virus 1, PBMC, HIV-1KM018, B/C recombinant, clinical strain
Compound,"FC, fold change, the ratio of EC50(Mut)/EC50(WT) [2]",EC50 [2] [µM],"FC, fold change, the ratio of EC50(Mut)/EC50(WT) [4]",EC50 [4] [µM],EC50 [5] [µM],"FC, fold change, the ratio of EC50(Mut)/EC50(WT) [5]","EC50 [1, 20] [µM]",EC50 [7] [µM],EC50 [8] [µM],"CC50s ([3]; PBMC, MTT, 7 days) [µM]",EC50 [9] [nM],EC50 [10] [nM],EC50 [11] [nM],EC50 [12] [µM],EC50 [13] [µM],"CC50s ([6]; C8166 cells, MTT, 3 days) [µM]",EC50 [15] [µM],further results
"Cc1cn([C@H]2C[C@H](N=[N+]=[N-])[C@@H](CO)O2)c(=O)[nH]c1=O [AZT, zidovudine]",1.40,0.0131 ± 0.00243,1.31,0.0123 ± 0.00024,0.00939 ± 0.00122,1,–,–,–,–,–,–,–,–,–,–,–,"EC50 ([1]; Human immunodeficiency virus 1, PBMC): 0.478 ± 0.0455 µM; CC50s ([3]; human): 845.31 ± 66.23 µM; CC50s ([6]; human): 5090 ± 260 µM"
"Nc1ccn([C@@H]2CS[C@H](CO)O2)c(=O)n1 [3TC, lamivudine, reference compound]",–,690,–,124,0.202 ± 0.0341,–,0.34 ± 0.0122,0.0517 ± 0.00308,0.0865 ± 0.011,825.98 ± 30.52,350 ± 206,319 ± 29.8,257 ± 43.6,0.243 ± 0.0101,0.386 ± 0.0362,930 ± 190,0.416 ± 0.0118,"inhibition at 1 µM ([14]; Human immunodeficiency virus 1, C8166): > 99%"
"[N-]=[N+]=N[C@]1(CO)O[C@@H](n2ccc(N)nc2=O)[C@@H](F)[C@@H]1O [FNC, 2′-deoxy-2′-β-fluoro-4′-azidocytidine]",232,0.0255 ± 0.00186,735,0.0808 ± 0.00814,0.00011 ± 2e-05,1,0.00692 ± 0.00059,0.00034 ± 4e-05,0.00045 ± 9e-05,3.07 ± 0.23,0.03 ± 0.02,0.025 ± 0.002,0.018 ± 0.006,0.00011 ± 1e-05,0.00036 ± 3e-05,2380 ± 50,0.00014 ± 1e-05,"suppressive effects fold stronger than 3TC ([1]; clinical strains in PBMC, first value of the sentence): 49 fold; suppressive effects fold stronger than 3TC ([8]; clinical strains in PBMC, second value of the sentence): 192 fold; EC50 ([16]; range over HIV-1 strains, read-out: EC50s on HIV-1): 0.03 to 6.92 nM; EC50 ([16]; wild-type HIV-1IIIB and HIV-1RF, read-out: 50% effective concentration values (EC50)): 0.03 to 0.11 nM; EC50 [17]: 0.018 to 0.025 nM; levels of ssDNA (strong-stop minus-strand DNA) ([18]; 1 h, 2 h and 4 h post-infection): significantly reduced; late RT level (full-length double-stranded DNA) ([18]; 4 h, 6 h and 8 h post-infection, P<0.01): significantly reduced; EC50s against HIV-1 in presence of human serum [19]: unaffected; inhibition at 0.0005 µM ([14]; Human immunodeficiency virus 1, HIV-1IIIB infected C8166, 500 pM FNC): > 99%"
